From patent publication US7351407B2, “Agents which regulate, inhibit, or modulate the activity and/or expression of connective tissue growth factor (CTGF) as a unique means to both lower intraocular pressure and treat glaucomatous retinopathies/optic neuropathies” (Alcon, Inc., priority 2002, dated 2008)

What was measured:
[1] = tested on: CTGF gene expression; assay: CTGF QPCR assay for inhibition of basal and TGFβ2-induced CTGF gene expression in cultured human TM cells; assay type: cell-based; conditions: for inhibition of TGFβ2-induced CTGF gene expression (mRNA levels): TGFβ2-stimulated; for inhibition of TGFβ2-induced CTGF gene expression (mRNA levels) / inhibition of basal CTGF gene expression (mRNA levels): cultured human normal or glaucomatous TM cells, QPCR; for inhibitory activity on CTGF expression: human TM cells, basal or TGFβ2-induced not specified
Description: FIG. 3. Effect of GSK-3 inhibition on CTGF gene expression in glaucomatous TM cells.
FIG. 4. Effect of CDK2 inhibition on CTGF gene expression in glaucomatous TM cells. To determine the effects of CDK inhibition on CTGF gene expression, we measured the effects of the known CDK2 inhibitor GW-8510 (Davis, et al. 2001) on both basal and TGFβ2-stimulated CTGF mRNA expression in a glaucomatous TM cell line (SGTM2697) using QPCR analysis.
The inventors have tested several different compound classes in a CTGF QPCR assay for inhibition of basal and TGFβ2-induced CTGF gene expression in cultured human normal or glaucomatous TM cells. Small molecule inhibitors were targeted at the inhibition of GSK-3, CDK, NAALADase, Protein Kinase C, MEK, p38MAPK, ROCK, VEGF, geranylgeranyl transferase and AGE. Small molecule agonists of PPAR, 5-HT, and P2X7 were also tested for activity. Compounds which target extracellular signal-regulated kinase 1 or 2 (ERK1 or ERK2) may also play a role in basal or TGFβ2-induced CTGF gene expression.
Total RNA was isolated from TM cells using Trizol® reagent according to the manufacturer's instructions (Life Technologies). First strand cDNA was generated from 1 ug of total RNA using random hexamers and TaqMan® Reverse Transcription reagents according to the manufacturer's instructions (PE Biosystems, Foster City, Calif.). The 100 ul reaction was subsequently diluted 20-fold to achieve an effective cDNA concentration of 0.5 ng/ul.
Differential expression of CTGF was verified by quantitative real-time RT-PCR (QPCR) using an ABI Prism® 7700 Sequence Detection System (Applied Biosystems). essentially as described (Shepard et al., IOVS 2001, 42:3173). Primers for CTGF amplification were designed using Primer Express software (Applied Biosystems) and anneal to adjacent exons of Genbank accession # NM_001901.1 ([…], nts 1667-1689 and […], nts 1723-1742) and generate a 76-bp amplicon. Amplification of CTGF was normalized to 18S ribosomal RNA expression using primers designed to the 18S rRNA gene (GenBank accession #X03205 […], nts 1680-1700 and […], nts 1730-1749) which generates a 69-bp amplicon. The SYBR® Green I double-stranded DNA binding dye chemistry (Applied Biosystems) was used to amplify CTGF or 18S cDNA. Specificity of the CTGF and 18S primer pairs was assessed from the PCR product by a combination of DNA sequencing, agarose gel analysis and dissociation curve analysis using the ABI Prism 770 SDS Dissociation Curve software (Applied Biosystems). CTGF or 18S rRNA reactions consisted of 1×SYBR Green PCR Master Mix (Applied Biosystems), 50 nM primer concentrations and 2.5 ng cDNA in a final volume of 50 ul. Thermal cycling conditions consisted of 50° C., 2 min, 95° C. 10 min followed by 40 cycles at 95° C., 15 sec, 60° C., 1 min. Quantification of relative RNA concentrations was done using the relative standard curve method as described in PE Biosystems User Bulletin #2 (http://docs.appliedbiosystems.com/pebiodocs/04303859.pdf). Data analysis was performed with SDS software version 1.9.1 (Applied Biosystems) and MS Excel 97 (Microsoft). Plasmid DNA containing target sequence for CTGF or 18S was used for generating the standard curve. QPCR data are presented as mean±SD.

[2] = target: CDK1 (Homo sapiens, UniProt P06493); conditions: cited from earlier work
[3] = target: CDK4 (Homo sapiens, UniProt P11802); conditions: cited from earlier work
Sequence of CDK4 (P11802 whole entry, species assumed): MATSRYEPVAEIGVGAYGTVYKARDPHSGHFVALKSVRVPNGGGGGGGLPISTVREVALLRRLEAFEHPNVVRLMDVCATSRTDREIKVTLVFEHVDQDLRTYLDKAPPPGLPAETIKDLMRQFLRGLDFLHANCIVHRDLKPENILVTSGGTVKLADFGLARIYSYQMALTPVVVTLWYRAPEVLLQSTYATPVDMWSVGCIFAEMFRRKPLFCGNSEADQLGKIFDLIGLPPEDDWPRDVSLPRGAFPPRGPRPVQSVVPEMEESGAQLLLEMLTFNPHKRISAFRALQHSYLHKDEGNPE
Sequence of CDK4 (P24385 whole entry partner, species assumed): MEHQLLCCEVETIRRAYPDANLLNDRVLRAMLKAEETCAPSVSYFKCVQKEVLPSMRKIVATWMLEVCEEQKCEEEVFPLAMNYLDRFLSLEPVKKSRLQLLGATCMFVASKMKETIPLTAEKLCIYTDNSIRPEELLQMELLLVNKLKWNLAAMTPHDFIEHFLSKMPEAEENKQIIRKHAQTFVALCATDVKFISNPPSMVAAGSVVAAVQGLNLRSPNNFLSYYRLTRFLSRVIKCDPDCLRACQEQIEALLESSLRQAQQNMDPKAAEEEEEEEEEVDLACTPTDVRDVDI

Sequence of CDK1 (P06493 whole entry, species assumed): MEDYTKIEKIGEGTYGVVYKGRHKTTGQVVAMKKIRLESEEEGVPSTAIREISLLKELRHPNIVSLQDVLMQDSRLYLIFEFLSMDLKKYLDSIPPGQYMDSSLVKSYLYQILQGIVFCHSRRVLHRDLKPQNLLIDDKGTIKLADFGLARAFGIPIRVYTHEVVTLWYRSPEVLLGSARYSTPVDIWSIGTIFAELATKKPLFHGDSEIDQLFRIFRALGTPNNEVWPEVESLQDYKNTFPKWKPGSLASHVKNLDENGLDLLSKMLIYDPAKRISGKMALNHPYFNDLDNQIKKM
Sequence of CDK1 (P14635 whole entry partner, species assumed): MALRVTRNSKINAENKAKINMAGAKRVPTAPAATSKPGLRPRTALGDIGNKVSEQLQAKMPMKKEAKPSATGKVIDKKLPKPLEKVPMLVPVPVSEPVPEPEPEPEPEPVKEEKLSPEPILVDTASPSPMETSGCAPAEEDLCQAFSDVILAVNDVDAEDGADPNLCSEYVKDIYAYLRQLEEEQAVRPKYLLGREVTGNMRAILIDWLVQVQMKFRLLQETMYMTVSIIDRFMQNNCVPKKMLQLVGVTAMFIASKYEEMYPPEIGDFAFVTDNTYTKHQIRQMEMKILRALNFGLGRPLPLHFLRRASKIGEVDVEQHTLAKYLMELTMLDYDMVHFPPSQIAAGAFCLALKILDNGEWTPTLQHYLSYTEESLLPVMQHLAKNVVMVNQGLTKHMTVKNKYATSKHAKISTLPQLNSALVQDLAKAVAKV

Compound	inhibition of basal CTGF gene expression (mRNA levels) [1]	also measured
O=C1Nc2ccc3ncsc3c2/C1=C/Nc1ccc(S(=O)(=O)Nc2ccccn2)cc1 [GW-8510]	inhibit	inhibition of TGFβ2-induced CTGF gene expression (mRNA levels) [1]: inhibit; IC50 [2]: 110 nM; IC50 [3]: 130 nM
N#Cc1ccc2[nH]c3c(c2c1)CC(=O)Nc1ccccc1-3 [9-cyanopaullone]	inhibit basal	–
CC(C)[C@H](CO)Nc1nc(Nc2cccc(Cl)c2)c2ncn(C(C)C)c2n1 [purvalanol A]	–	inhibitory activity on CTGF expression [1]: inhibitory activity
Cn1cc(C2=C(c3ccc(Cl)cc3Cl)C(=O)NC2=O)c2ccccc21 [SB-216763]	inhibit	inhibition of TGFβ2-induced CTGF gene expression (mRNA levels) [1]: inhibit
CC[C@H](CO)Nc1nc(NCc2ccccc2)c2ncn(C(C)C)c2n1 [roscovitine]	–	inhibitory activity on CTGF expression [1]: inhibitory activity
CCCCC[C@H](O)/C=C/C=C\C/C=C\C/C=C\CCCC(=O)O [15(S)HETE]	inhibit basal	–
O=C1Cc2c([nH]c3ccc(Br)cc23)-c2ccccc2N1 [kenpaullone]	inhibit basal	–
O=C1Cc2c([nH]c3ccc([N+](=O)[O-])cc23)-c2ccccc2N1 [alsterpaullone]	inhibit basal	–
